Experimental findings from patent US5371225A, “Tetracyclic compounds” (Kyowa Hakko Kogyo Co., Ltd., priority 1992, dated 1994) are described below.

The test system of experiment [1] is spleen cells (antibody production, direct PFC count). The experiment in a line: Plaque Forming Cell Assay (inhibition of antibody production). The note with it: Mus musculus, Erythrocyte, 120 h, spleen cells of mice sensitized with sheep erythrocytes, cultured 5 days, read-out: Inhibition rate; for inhibition at 10 µM: 10^-5 M; for inhibition at 0.1 µM: 10^-7 M. Format: cell-based, Balb/c strain mice.

The test system is the same in experiment [2]. The experiment is described as above. In kind it is cell-based, Balb/c strain mice. The note with it: Mus musculus, Erythrocyte, 120 h; 10^-6 M; spleen cells of mice sensitized with sheep erythrocytes, cultured 5 days; read-out: Inhibition rate. On the procedure: The plaque forming cell assay was carried out by the following manner with reference to the method of Jerne et al. [Science, 140, 405 (1963) ]and the method of Yamamoto et al. [Drugs Experimental Clinical Research, III(1), 5 (1982)].
Male Balb/c strain mice (7-week-old) (Charles River Co.) were sensitized with 1×10^8 sheep erythrocytes (product of Biotest Research Institute) administered via the caudal vein, and the spleens were extirpated after 6 or 7 days after the sensitization. The extirpated spleens were immersed in Hanks' solution (Nissui Seiyaku) to make a cell suspension, which was then filtered, followed by centrifugal separation at 1200 rpm for 5 minutes. After centrifugal separation, the supernatant was discarded and the precipitate was treated with Tris·NH4 Cl solution to remove the erythrocytes, and then washed three times with Hanks' solution. After discarding the supernatant, the cells were suspended in an RPMI-1640 medium (Nissui Seiyaku) containing 10% bovine fetal serum (Gibco Co. ), 50 μg/ml of streptomycin (Meiji Seika), […] of penicillin (Meiji Seika) and 2mercaptoethanol (5×10^-5 M). In each well of a micro culture plate (NUNK Co., Ltd., 24 wells) were put 2 ml of the mixture of the cell suspension containing 1×10^7 of spleen cells, 5×10^6 sheep erythrocytes and a test compound solution (10^-6 M) obtained by diluting the test compound dissolved in dimethylsulfoxide (10^-2 M) with the above mentioned RPMI-1640, and the cells were cultured at 37° C. for 5 days.
After the completion of the culturing, the cells were subjected to centrifugal separation at 2000 rpm for 5 minutes, and the resulting supernatant was removed. The precipitate was suspended in 1 ml of Hanks' solution, again subjected to centrifugal separation, suspended in 1 ml of Hanks' solution, and then, 50 μl of the suspension and 50 μl of sheep erythrocytes were added to 400 μl of 0.25% agarose/Hanks' solution heated to 50° C. in advance, and the mixture was scattered on a glass slide, placed on a plaque assay plate, and together with guinea pig complement (Cedarlene Institute) diluted 40-fold with a phosphate buffer solution, incubated at 37° C. for 1 to 2 hours. The number of the appearing direct plaque cells (direct PFC count) in suspension was counted.
The inhibition rate of the antibody production of the test compound was determined by the following equation. [formula]
The compound used for comparison was 5,6-dihydro-9-fluoro-3-phenylbenz[c]acridine-7-carboxylic acid [Japanese Published Unexamined Patent Application No. 233661/90, hereinafter referred to as Compound (A)]represented by formula (A). [drawing 12]
PFC count in control means PFC count in the absence of the test compound (dimethylsulfoxide alone).

As to `CC1Cc2c(nc3ccc(F)cc3c2C(=O)O)-c2ccc(-c3ccccc3F)cc21` (centres unmarked) [Compound 5, 5,6-Dihydro-9-fluoro-3-(2-fluorophenyl)-5methylbenz[c]acridine-7-carboxylicacid], the inhibition at 10 µM in experiment [1] came to 98.7%. Also, in experiment [2], the inhibition at 1 µM amounted to 64.6%.

For `O=C(O)c1c2c(nc3ccc(F)cc13)-c1ccc(-c3ccccc3)cc1CC2` [A, 5,6-dihydro-9-fluoro-3-phenylbenz[c]acridine-7-carboxylic acid, reference compound], the inhibition at 10 µM in experiment [1] came to 78.6%. Moreover, in experiment [2], the inhibition at 1 µM was determined as 45.9%.

`O=C(O)c1c2c(nc3ccc(F)cc13)-c1ccc(-c3ccccc3F)cc1CCC2` [Compound 3, 6,7-Dihydro-10-fluoro-3-(2-fluorophenyl) -5Hbenzo [6, 7]cyclohepta [1,2-b]quinoline-8-carboxylic acid]: in experiment [1], the inhibition at 10 µM is 83.5% and the inhibition at 0.1 µM turned out to be 55.4%. The inhibition at 1 µM in experiment [2] came out at 80.3%.

For the molecule `O=C(O)c1c2c(nc3ccc(F)cc13)-c1ccc(-c3ccccc3F)cc1CC2` [Compound 2, 5,6-Dihydro-9-fluoro-3-(2-fluorophenyl) ben z [c]acridine-7carboxylicacid], in experiment [1], the inhibition at 10 µM was found to be 99.4% and the inhibition at 0.1 µM is 57.1%. Further, the inhibition at 1 µM in experiment [2] is 94.4%.

On to `CC1Cc2cc(-c3ccccc3F)ccc2-c2nc3ccc(F)cc3c(C(=O)O)c21` (centres unmarked) [Compound 8], for which, in experiment [1], the inhibition at 10 µM stood at 98.7%. Besides, the inhibition at 1 µM in experiment [2] was 80.2%.

`CC1(C)Cc2c(nc3ccc(F)cc3c2C(=O)O)-c2ccc(-c3ccccc3F)cc21` [Compound 7]: the inhibition at 10 µM in experiment [1] was found to be 98.1%. Also, the inhibition at 1 µM in experiment [2] came out at 75.3%.
